Experimental data published in patent US20200264182A1, “METHOD FOR DETECTING PROSTATE CANCER” (J-OIL MILLS, INC., priority 2017, published 2020).
Where no end group is shown, it is not given here.

What was measured:
FAC binding constant = conditions: at 25° C.
Procedure, shortened: (§1)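 FAC was run at 25° C to derive binding constants, using the fucose α1→6 specific lectins PhoSL, SRL, NSL and LSL against several sugar chains.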

[1] = FAC binding constant (Table 5 entry); conditions: Table 5: sugar chain having no fucose; at 25° C.
Procedure, shortened: as §1

[2] = sugar chain having fucose other than α1→6 fucose

PhoSL: fucose α1→6 specific lectin that can be extracted from Pholiota squarrosa, SEQ ID No. 1 (APVPVTKLVCDGDTYKCTAYLDFGDGRWVAQWDTNVFHTG; not fully specified; ends and bridges not checked)
220000 M⁻¹: Binding constant for sugar chain No. 406 (FAC binding constant; sugar chain having α1→6 fucose) | Binding constant for sugar chain No. 410 (FAC binding constant; sugar chain having α1→6 fucose) | Binding constant for sugar chain No. 418 (FAC binding constant; sugar chain having α1→6 fucose)
280000 M⁻¹: Binding constant for sugar chain No. 407 (FAC binding constant; sugar chain having α1→6 fucose) | Binding constant for sugar chain No. 413 (FAC binding constant; sugar chain having α1→6 fucose)
500000 M⁻¹: Binding constant for sugar chain No. 015 (FAC binding constant; sugar chain having α1→6 fucose)
120000 M⁻¹: Binding constant for sugar chain No. 602 (FAC binding constant; sugar chain having α1→6 fucose)
350000 M⁻¹: Binding constant for sugar chain No. 401 (FAC binding constant; sugar chain having α1→6 fucose)
330000 M⁻¹: Binding constant for sugar chain No. 203 (FAC binding constant; sugar chain having α1→6 fucose)
200000 M⁻¹: Binding constant for sugar chain No. 402 (FAC binding constant; sugar chain having α1→6 fucose)
340000 M⁻¹: Binding constant for sugar chain No. 403 (FAC binding constant; sugar chain having α1→6 fucose)
240000 M⁻¹: Binding constant for sugar chain No. 601 (FAC binding constant; sugar chain having α1→6 fucose)
<1000 M⁻¹: Binding constant for sugar chain No. 728 (FAC binding constant; Table 3: sugar chain having fucose other than α1→6 fucose) | Binding constant for sugar chain No. 419 (FAC binding constant; [2]) | Binding constant for sugar chain No. 420 (FAC binding constant; [2]) | Binding constant for sugar chain No. 718 (FAC binding constant; [2]) | Binding constant for sugar chain No. 719 (FAC binding constant; [2]) | Binding constant for sugar chain No. 720 (FAC binding constant; [2]) | Binding constant for sugar chain No. 721 (FAC binding constant; [2]) | Binding constant for sugar chain No. 722 (FAC binding constant; [2]) | Binding constant for sugar chain No. 723 (FAC binding constant; [2]) | Binding constant for sugar chain No. 726 (FAC binding constant; [2]) | Binding constant for sugar chain No. 727 (FAC binding constant; [2]) | Binding constant for sugar chain No. 729 (FAC binding constant; [2]) | Binding constant for sugar chain No. 730 (FAC binding constant; [2]) | Binding constant for sugar chain No. 731 (FAC binding constant; [2]) | Binding constant for sugar chain No. 739 (FAC binding constant; [2]) | Binding constant for sugar chain No. 909 (FAC binding constant; [2]) | Binding constant for sugar chain No. 910 (FAC binding constant; [2]) | Binding constant for sugar chain No. 931 (FAC binding constant; [2]) | Binding constant for sugar chain No. 932 (FAC binding constant; [2]) | Binding constant for sugar chain No. 933 (FAC binding constant; [2]) | Binding constant for sugar chain No. 001 (FAC binding constant; sugar chain having no fucose) | Binding constant for sugar chain No. 002 (FAC binding constant; sugar chain having no fucose) | Binding constant for sugar chain No. 003 (FAC binding constant; sugar chain having no fucose) | Binding constant for sugar chain No. 004 (FAC binding constant; sugar chain having no fucose) | Binding constant for sugar chain No. 005 (FAC binding constant; sugar chain having no fucose) | Binding constant for sugar chain No. 006 (FAC binding constant; sugar chain having no fucose) | Binding constant for sugar chain No. 007 (FAC binding constant; sugar chain having no fucose) | Binding constant for sugar chain No. 008 (FAC binding constant; sugar chain having no fucose) | Binding constant for sugar chain No. 009 (FAC binding constant; sugar chain having no fucose) | Binding constant for sugar chain No. 010 (FAC binding constant; sugar chain having no fucose) | Binding constant for sugar chain No. 011 (FAC binding constant; sugar chain having no fucose) | Binding constant for sugar chain No. 012 (FAC binding constant; sugar chain having no fucose) | Binding constant for sugar chain No. 013 (FAC binding constant; sugar chain having no fucose) | Binding constant for sugar chain No. 014 (FAC binding constant; sugar chain having no fucose) | Binding constant for sugar chain No. 101 (FAC binding constant; sugar chain having no fucose) | Binding constant for sugar chain No. 103 (FAC binding constant; sugar chain having no fucose) | Binding constant for sugar chain No. 104 (FAC binding constant; sugar chain having no fucose) | Binding constant for sugar chain No. 105 (FAC binding constant; sugar chain having no fucose) | Binding constant for sugar chain No. 107 (FAC binding constant; sugar chain having no fucose) | Binding constant for sugar chain No. 108 (FAC binding constant; sugar chain having no fucose) | Binding constant for sugar chain No. 301 (FAC binding constant; sugar chain having no fucose) | Binding constant for sugar chain No. 304 (FAC binding constant; sugar chain having no fucose) | Binding constant for sugar chain No. 305 (FAC binding constant; sugar chain having no fucose) | Binding constant for sugar chain No. 307 (FAC binding constant; sugar chain having no fucose) | Binding constant for sugar chain No. 308 (FAC binding constant; sugar chain having no fucose) | Binding constant for sugar chain No. 313 (FAC binding constant; sugar chain having no fucose) | Binding constant for sugar chain No. 314 (FAC binding constant; sugar chain having no fucose) | Binding constant for sugar chain No. 323 (FAC binding constant; sugar chain having no fucose) | Binding constant for sugar chain No. 501 (FAC binding constant; sugar chain having no fucose) | Binding constant for sugar chain No. 502 (FAC binding constant; sugar chain having no fucose) | Binding constant for sugar chain No. 503 (FAC binding constant; sugar chain having no fucose) | Binding constant for sugar chain No. 504 (FAC binding constant; sugar chain having no fucose) | Binding constant for sugar chain No. 701 (FAC binding constant; sugar chain having no fucose) | Binding constant for sugar chain No. 702 (FAC binding constant; sugar chain having no fucose) | Binding constant for sugar chain No. 703 (FAC binding constant; sugar chain having no fucose) | Binding constant for sugar chain No. 704 (FAC binding constant; sugar chain having no fucose) | Binding constant for sugar chain No. 705 (FAC binding constant; sugar chain having no fucose) | Binding constant for sugar chain No. 706 (FAC binding constant; sugar chain having no fucose) | Binding constant for sugar chain No. 707 (FAC binding constant; sugar chain having no fucose) | Binding constant for sugar chain No. 708 (FAC binding constant; sugar chain having no fucose) | Binding constant for sugar chain No. 709 (FAC binding constant; sugar chain having no fucose) | Binding constant for sugar chain No. 710 (FAC binding constant; sugar chain having no fucose) | Binding constant for sugar chain No. 711 (FAC binding constant; sugar chain having no fucose) | Binding constant for sugar chain No. 712 (FAC binding constant; sugar chain having no fucose) | Binding constant for sugar chain No. 713 (FAC binding constant; sugar chain having no fucose) | Binding constant for sugar chain No. 715 (FAC binding constant; sugar chain having no fucose) | Binding constant for sugar chain No. 716 (FAC binding constant; sugar chain having no fucose) | Binding constant for sugar chain No. 717 (FAC binding constant; sugar chain having no fucose) | Binding constant for sugar chain No. 724 (FAC binding constant; sugar chain having no fucose) | Binding constant for sugar chain No. 725 (FAC binding constant; sugar chain having no fucose) | Binding constant for sugar chain No. 732 (FAC binding constant; sugar chain having no fucose) | Binding constant for sugar chain No. 733 (FAC binding constant; sugar chain having no fucose) | Binding constant for sugar chain No. 734 (FAC binding constant; sugar chain having no fucose) | Binding constant for sugar chain No. 735 (FAC binding constant; sugar chain having no fucose) | Binding constant for sugar chain No. 736 (FAC binding constant; sugar chain having no fucose) | Binding constant for sugar chain No. 737 (FAC binding constant; sugar chain having no fucose) | Binding constant for sugar chain No. 738 (FAC binding constant; sugar chain having no fucose) | Binding constant for sugar chain No. 901 (FAC binding constant; sugar chain having no fucose) | Binding constant for sugar chain No. 902 (FAC binding constant; sugar chain having no fucose) | Binding constant for sugar chain No. 903 (FAC binding constant; sugar chain having no fucose) | Binding constant for sugar chain No. 905 (FAC binding constant; sugar chain having no fucose) | Binding constant for sugar chain No. 906 (FAC binding constant; sugar chain having no fucose) | Binding constant for sugar chain No. 907 (FAC binding constant; sugar chain having no fucose) | Binding constant for sugar chain No. 728 [1]
320000 M⁻¹: Binding constant for sugar chain No. 405 (FAC binding constant; sugar chain having α1→6 fucose)
390000 M⁻¹: Binding constant for sugar chain No. 404 (FAC binding constant; sugar chain having α1→6 fucose)
460000 M⁻¹: Binding constant for sugar chain No. 201 (FAC binding constant; sugar chain having α1→6 fucose)
400000 M⁻¹: Binding constant for sugar chain No. 202 (FAC binding constant; sugar chain having α1→6 fucose)
